# Values quoted from earlier work, collected in patent EP2525785B1, “SUSTAINED RELEASE TABLET FORMULATION CONTAINING ETODOLAC” (Turgut Laclari A.S., priority 2010, dated 2011).
# Details: below pH 3
structure (smiles),measurement,value
"CCc1cccc2c3c([nH]c12)C(CC)(CC(=O)O)OCC3 (stereo not shown) [Etodolac, 2-(1,8-diethyl-4,9-dihydro-3H-pyrano[3,4-b]indole-1-il)acetic acid]",solubility,low solubility
